Patent publication US20110097274A1, “Carbon-11 and fluorine-18 labeled radioligands for positron emission tomography (PET) imaging for the brain serotonin transporters” (priority 2002, published 2011)
Where “and” joins values, the source holds several entries; their conditions need not be identical. Identical values can stand only once. Like-named read-outs stand apart in the source and are kept apart here.

Tested on: SERT
Test: Baboon PET imaging: brain uptake, kinetic analysis and SERT parameters
Type: in vivo
Settings: for Kp: male, baboon, brain, intravenous
Description: PET imaging protocol: PET experiments (n=20) were performed at Columbia University. Two adult male baboons (baboon A and B) were studied twice with each of the 5 radioligands (4 experiments per radioligand). All experiments took place within a 9-month period. Baboons A and B were 31 kg and 21 kg in weight at the beginning of the experimental period and 28 and 22 kg at the end, respectively. Test and retest experiments with the same radioligand were obtained on different days, with an average interval of 117±53 days.
Experiments were performed according to protocols approved by the Columbia-Presbyterian Medical Center Institutional Animal Care and Use Committee. Fasted animals were immobilized with ketamine (10 mg/kg i.m.), and anesthetized with 1.8% isoflurane via an endotracheal tube. Vital signs were monitored every 10 minutes and the temperature was kept constant at 37° C. with heated water blankets. An i.v. perfusion line was used for hydration and injection of radioligands and nonradioactive drugs. A catheter was inserted in a femoral artery for arterial blood sampling. Head was positioned at the center of the field of view as defined by imbedded laser lines. PET imaging was performed with the ECAT EXACT HR+PET scanner (Siemens/CTI, Knoxville, Tenn.). In 3D mode, this camera provides an in-plane resolution of 4.3 mm, 4.5 mm, 5.4 mm and 8.0 mm full width at half maximum (FWHM) at a distance of 0, 1, 10 and 20 cm from the center of the field of view, respectively (Brix et al., 1997). A 15 minute transmission scan was obtained prior to radioligand injection for attenuation correction. Activity was injected i.v. over 30 seconds. […] Emission data was collected in the 3D mode for 91 minutes as 21 successive frames of increasing duration (6*10 seconds, 2*1 minutes, 4*2 minutes, 2*5 minutes, and 7*10 minutes).
Image analysis: A Magnetic Resonance Image (MRI) of each baboon's brain was obtained for the purpose of identifying the regions of interest (ROI) (T1-weighted axial MRI sequence, acquired parallel to the anterior-posterior commissure, TR 34 msec, TE 5 msec, flip angle of 45 degrees, slice thickness is 1.5 mm, zero gap, matrix 1.5 mm×1 mm×1 mm voxels). The following regions were drawn on the MR images: cerebellum, midbrain, thalamus, striatum, hippocampus, temporal cortex, cingulate cortex and occipital cortex.
PET emission data were attenuation-corrected using the transmission scan, and frames were reconstructed using a Shepp filter (cutoff 0.5 cycles/projection rays). Reconstructed image files were then processed using the image analysis software MEDx (Sensor Systems, Inc., Sterling, Va.). An image was created by summing all the frames, and this summed image was used to define the registration parameters with the MR image, using between-modality automated image registration (AIR) algorithm (Woods et al., 1993). Registration parameters were then applied to the individual frames for registration to the MR data set. Regional boundaries were transferred to the individual registered PET frames, and time-activity curves were measured and decay-corrected. Right and left regions were averaged. For a given animal, the same regions were used for all radioligands.
Brain uptake: Total brain uptake was expressed as percentage of the injected dose per gram of tissue (% ID g^−1) in a region encompassing the entire brain. Regional peak time was defined as the mid-time of the frame associated with the highest activity value. To estimate the degree of wash-out from the brain captured during the scan interval (91 minutes), the decrease in activity from the peak frame to the last frame was calculated and expressed in percentage of the peak activity.
Kinetic analysis: Regional total distribution volumes (VT, mL g^−1) were derived with kinetic analysis of the regional time-activity curves, using the arterial plasma concentrations as input function. […]

[1] = BP = VT ROI − VT CER, baboons, mean ± SD of four experiments
[2] = Mean ± SD of four experiments in two baboons
[3] = baboon A, experiments of FIGS. 5-9 (FIG. 10)
[4] = baboons, mean ± SD of four experiments
[5] = last scan 90 minutes, baboons, mean ± SD of four experiments
[6] = one-tissue compartment model, baboons, mean ± SD of four experiments

Time at which measured thalamus to cerebellum ratio equals the true equilibrium ratio (estimate of peak specific binding) [3]: 80 min | K1, average of all regions and all animals (baboons): 0.85 ± 0.23 mL/g/min | k2, average of all regions and all animals (baboons): 0.020 ± 0.008 min⁻¹ | Mean regional peak uptake time (baboons, mean of all regions): 50 ± 20 min | Mean regional wash-out (% decrease between peak time and last scan) (baboons, mean of all regions): 12±11% | Regional uptake peak time Cerebellum [4]: 24 ± 10 min | Regional uptake peak time Cingulate Cortex [4]: 36 ± 8 min | Regional uptake peak time Hippocampus [4]: 64 ± 15 min | Regional uptake peak time Midbrain [4]: 71 ± 13 min | Regional uptake peak time Occipital Cortex [4]: 36 ± 8 min | Regional uptake peak time Striatum [4]: 51 ± 19 min | Regional uptake peak time Temporal Cortex [4]: 49 ± 10 min | Regional uptake peak time Thalamus [4]: 69 ± 13 min | Total brain uptake at 45 min (baboons, region encompassing the entire brain): 0.018±0.002 % ID g^−1 | Regional activity wash-out: % decrease from peak to last scan, Cerebellum [5]: 29 ± 14% | Regional activity wash-out: % decrease from peak to last scan, Cingulate Cortex [5]: 19 ± 9% | Regional activity wash-out: % decrease from peak to last scan, Hippocampus [5]: 4 ± 5% | Regional activity wash-out: % decrease from peak to last scan, Midbrain [5]: 2 ± 3% | Regional activity wash-out: % decrease from peak to last scan, Occipital Cortex [5]: 18 ± 7% | Regional activity wash-out: % decrease from peak to last scan, Striatum [5]: 8 ± 8% | Regional activity wash-out: % decrease from peak to last scan, Temporal Cortex [5]: 11 ± 5% | Regional activity wash-out: % decrease from peak to last scan, Thalamus [5]: 3 ± 4% | Kp (cingulate cortex, one-tissue compartment model, baboons, mean ± SD of four experiments, read-out: VT Cingulate Cortex): 37.1 ± 3.8 | Kp (hippocampus, one-tissue compartment model, baboons, mean ± SD of four experiments, read-out: VT Hippocampus): 44.7 ± 3.4 | Kp (midbrain, one-tissue compartment model, baboons, mean ± SD of four experiments, read-out: VT Midbrain): 69.2 ± 7 | Kp (occipital cortex, one-tissue compartment model, baboons, mean ± SD of four experiments, read-out: VT Occipital Cortex): 35 ± 4.8 | Kp (striatum, one-tissue compartment model, baboons, mean ± SD of four experiments, read-out: VT Striatum): 52.1 ± 3 | Kp (temporal cortex, one-tissue compartment model, baboons, mean ± SD of four experiments, read-out: VT Temporal Cortex): 40.5 ± 6 | Kp (thalamus, one-tissue compartment model, baboons, mean ± SD of four experiments, read-out: VT Thalamus): 74.4 ± 3.1 | K1 Cerebellum [6]: 0.99 ± 0.29 mL/g/min | K1 Cingulate Cortex [6]: 0.91 ± 0.24 mL/g/min | K1 Hippocampus [6]: 0.67 ± 0.16 mL/g/min | K1 Midbrain [6]: 0.86 ± 0.27 mL/g/min | K1 Occipital Cortex [6]: 0.83 ± 0.17 mL/g/min | K1 Striatum [6]: 0.90 ± 0.26 mL/g/min | K1 Temporal Cortex [6]: 0.78 ± 0.18 mL/g/min | K1 Thalamus [6]: 0.89 ± 0.26 mL/g/min | K2 Cerebellum [6]: 0.034 ± 0.009 min⁻¹ | K2 Cingulate Cortex [6]: 0.025 ± 0.006 min⁻¹ | K2 Hippocampus [6]: 0.015 ± 0.003 min⁻¹ | K2 Midbrain [6]: 0.012 ± 0.003 min⁻¹ | K2 Occipital Cortex [6]: 0.024 ± 0.005 min⁻¹ | K2 Striatum [6]: 0.017 ± 0.005 min⁻¹ | K2 Temporal Cortex [6]: 0.019 ± 0.004 min⁻¹ | K2 Thalamus [6]: 0.012 ± 0.004 min⁻¹
Compound: CN(C)Cc1ccccc1Sc1ccc(Br)cc1N [[^11C]DAPA]
Binding potential Cingulate Cortex [1]: 7.9 ± 1.0 mL/g | Binding potential Hippocampus [1]: 15.5 ± 0.7 mL/g | Binding potential Midbrain [1]: 40.0 ± 4.3 mL/g | Binding potential Occipital Cortex [1]: 5.7 ± 1.9 mL/g | Binding potential Striatum [1]: 22.9 ± 0.9 mL/g | Binding potential Temporal Cortex [1]: 11.2 ± 3.3 mL/g | Binding potential Thalamus [1]: 45.1 ± 1.8 mL/g | Equilibrium specific to non-specific partition coefficient (V3″) Cingulate Cortex (Baboon A, single experiment): 0.29 and 0.26 | Equilibrium specific to non-specific partition coefficient (V3″) Hippocampus (Baboon A, single experiment): 0.54 and 0.48 | Equilibrium specific to non-specific partition coefficient (V3″) Midbrain (Baboon A, single experiment): 1.41 and 1.37 | Equilibrium specific to non-specific partition coefficient (V3″) Occipital Cortex (Baboon A, single experiment): 0.22 and 0.25 | Equilibrium specific to non-specific partition coefficient (V3″) Striatum (Baboon A, single experiment): 0.73 and 0.72 | Equilibrium specific to non-specific partition coefficient (V3″) Temporal Cortex (Baboon A, single experiment): 0.48 and 0.42 | Equilibrium specific to non-specific partition coefficient (V3″) Thalamus (Baboon A, single experiment): 1.49 and 1.40 | Equilibrium specific to non-specific partition coefficient (V3″) Cingulate Cortex (Baboon B, single experiment): 0.25 and 0.27 | Equilibrium specific to non-specific partition coefficient (V3″) Hippocampus (Baboon B, single experiment): 0.56 and 0.54 | Equilibrium specific to non-specific partition coefficient (V3″) Midbrain (Baboon B, single experiment): 1.42 and 1.27 | Equilibrium specific to non-specific partition coefficient (V3″) Occipital Cortex (Baboon B, single experiment): 0.15 | Equilibrium specific to non-specific partition coefficient (V3″) Striatum (Baboon B, single experiment): 0.91 and 0.79 | Equilibrium specific to non-specific partition coefficient (V3″) Temporal Cortex (Baboon B, single experiment): 0.30 and 0.32 | Equilibrium specific to non-specific partition coefficient (V3″) Thalamus (Baboon B, single experiment): 1.81 and 1.52 | Equilibrium specific to non-specific partition coefficient (V3″) Cingulate Cortex [2]: 0.27 ± 0.02 | Equilibrium specific to non-specific partition coefficient (V3″) Hippocampus [2]: 0.53 ± 0.04 | Equilibrium specific to non-specific partition coefficient (V3″) Midbrain [2]: 1.37 ± 0.07 | Equilibrium specific to non-specific partition coefficient (V3″) Occipital Cortex [2]: 0.19 ± 0.05 | Equilibrium specific to non-specific partition coefficient (V3″) Striatum [2]: 0.79 ± 0.09 | Equilibrium specific to non-specific partition coefficient (V3″) Temporal Cortex [2]: 0.38 ± 0.09 | Equilibrium specific to non-specific partition coefficient (V3″) Thalamus [2]: 1.55 ± 0.18 | Thalamus to cerebellum ratio equal to true equilibrium ratio (V3″+1) [3]: 2.49 | V3″ expressed in percentage of [^11C]McN 5652 V3″ (baboons, combining all regions): 151±18% | Cingulate Cortex to cerebellum activity ratio at 90 minutes [4]: 1.27 ± 0.05 | Hippocampus to cerebellum activity ratio at 90 minutes [4]: 1.42 ± 0.13 | Midbrain to cerebellum activity ratio at 90 minutes [4]: 2.05 ± 0.31 | Occipital Cortex to cerebellum activity ratio at 90 minutes [4]: 1.19 ± 0.08 | Striatum to cerebellum activity ratio at 90 minutes [4]: 1.69 ± 0.12 | Temporal Cortex to cerebellum activity ratio at 90 minutes [4]: 1.35 ± 0.16 | Thalamus to cerebellum activity ratio at 90 minutes [4]: 2.15 ± 0.30
